Test results as given in PMC7921015, “Spatiotemporal GLP-1 and GIP receptor signaling and trafficking/recycling dynamics induced by selected receptor mono- and dual-agonists” (Molecular Metabolism, 2021).

Experiments:
human GIPR [1] = biological target: T1, human GIPR (Homo sapiens, UniProt P48546); experiment: β-arrestin 2 recruitment BRET assay, GIPR; assay type: cell-based; conditions: HEK293T, GIPR-GFP + β-arrestin2-RLUC8, BRET, +iAUC 30 min
T1 sequence (P48546 22-466): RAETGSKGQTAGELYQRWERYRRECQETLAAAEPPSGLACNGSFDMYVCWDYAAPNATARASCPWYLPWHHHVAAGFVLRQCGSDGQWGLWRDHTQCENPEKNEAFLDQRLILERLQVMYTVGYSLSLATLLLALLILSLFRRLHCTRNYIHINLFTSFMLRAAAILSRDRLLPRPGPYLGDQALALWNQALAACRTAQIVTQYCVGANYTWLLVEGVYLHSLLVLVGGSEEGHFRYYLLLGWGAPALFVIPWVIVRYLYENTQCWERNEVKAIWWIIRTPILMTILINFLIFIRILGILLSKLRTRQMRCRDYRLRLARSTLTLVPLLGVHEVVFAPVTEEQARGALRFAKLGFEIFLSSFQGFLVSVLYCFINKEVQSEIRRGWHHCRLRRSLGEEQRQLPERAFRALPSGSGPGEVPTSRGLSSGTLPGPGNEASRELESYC
Procedure: (§1) The cells were seeded (700,000 cells/well) in 6-well plates and incubated to ∼70% confluency in complete media supplemented with 10% FBS and 1% Pen-Strep. […] Baseline measurements were taken after 5 min of incubation with coelenterazine-h or NanoGlo. The cells were then treated with a vehicle or the respective agonists. […] The temporal data of the vehicle-corrected agonist measurement was then normalized to the baseline reading of the same well. The first BRET reading following treatment with agonist/vehicle was the subsequent measurement after the zero time point. Positive or negative incremental areas under the curves (+iAUC/-iAUC) were calculated where noted. Each experiment was independently performed at least three times, with at least two technical replicates for each group.
(§2) Co-localization of β-arrestin1/2-RLUC8 with GLP-1R-GFP or GIPR-GFP was assessed.
(§3) Data are represented as means ± S.E.M. Each experiment was independently conducted at least three times, each with at least two technical replicates. […] Dose responses were fitted using non-linear regression. pEC50 and EC50 values were calculated using GraphPad Prism 8.0 (GraphPad, San Diego, CA, USA). Statistical analyses were calculated in GraphPad 8.0 using one-way analysis of variance (ANOVA) and corrected with Tukey's or Bonferroni's multiple comparison test. Differences are considered significant with an adjusted p value < 0.05.

human GIPR [2] = biological target: T1, human GIPR; experiment: β-arrestin 1 recruitment BRET assay, GIPR; assay type: cell-based
Procedure: as §1, §2, §3

human GIPR [3] = biological target: T1, human GIPR; experiment: cAMP assay (CAMYEL BRET sensor), GIPR; assay type: cell-based
Procedure: as §1
(§4) CAMYEL, a cAMP sensor using YFP-Epac-RLuc was utilized to quantify cAMP accumulation with the temporal resolution. Then, 500 ng of CAMYEL DNA was co-transfected with 500 ng of DNA of untagged GLP-1R or GIPR per well in a 6-well plate. The experiments were performed in the absence of 3-isobutyl-1-methylxanthine (IBMX).
as §3

human GLP-1R [4] = biological target: T2, human GLP-1R (Homo sapiens, UniProt P43220); experiment: cAMP assay (CAMYEL BRET sensor), GLP-1R; assay type: cell-based
T2 construct: host or cells: HEK293T
Procedure: as §1, §4, §3

Human GLP-1R-GFP (human) [5] = biological target: Human GLP-1R-GFP (human) (UniProt P43220)
Human GLP-1R-GFP (human) [6] = biological target: Human GLP-1R-GFP (human) (UniProt P43220); remark: listed apart in the source
human GLP-1R [7] = biological target: T2, human GLP-1R; experiment: Gαs (mini-G) recruitment BRET assay, GLP-1R; assay type: cell-based; conditions: HEK-293T, HEK293T, GLP-1R-GFP + NLuc-mini-G, +iAUC 60 min, mean ± SEM, at least 3 experiments
human GIPR [8] = biological target: T1, human GIPR; experiment: GPCR internalization assay (loss of BRET with Venus-KRAS), GIPR; assay type: cell-based; conditions: HEK293T, hGIPR-Rluc8 + Venus-KRAS, iAUC 20 min, mean ± SEM, SEM
human GLP-1R [9] = biological target: T2, human GLP-1R; experiment: Gαq (mini-G) recruitment BRET assay, GLP-1R; assay type: cell-based; conditions: HEK-293T, HEK293T, GLP-1R-GFP + NLuc-mini-G, +iAUC 60 min, mean ± SEM, at least 3 experiments
human GIPR [10] = biological target: T1, human GIPR; experiment: Gαs (mini-G) recruitment BRET assay, GIPR; assay type: cell-based; conditions: HEK293T, GIPR-GFP + NLuc-mini-G, +iAUC 60 min
human GLP-1R [11] = biological target: T2, human GLP-1R; experiment: Endosomal trafficking assay (Venus-Rab5/7/11 co-localization), GLP-1R, HEK293T; assay type: cell-based; conditions: six experiments
Procedure: GPCR endosomal trafficking was assessed by measuring the ligand-stimulated gain in resonance energy transfer between Venus-Rab5/7/11 and hGLP-1R-RLUC8 or hGIPR-RLUC. Then, 100 ng of the respective Venus-Rab subtype DNA and 100 ng of hGLP-1R-RLUC8 or hGIPR-RLUC8 DNA were co-transfected into each well in a 6-well plate.

human GLP-1R [12] = biological target: T2, human GLP-1R; experiment: GPCR internalization assay (loss of BRET with Venus-KRAS), GLP-1R; assay type: cell-based; conditions: HEK-293T, HEK293T, hGLP-1R-Rluc8 + Venus-KRAS, iAUC 60 min, mean ± SEM, at least 3 experiments, SEM, read-out: Receptor Internalization Emax (% GLP-1)
human GIPR [13] = biological target: T1, human GIPR; experiment: Gαq (mini-G) recruitment BRET assay, GIPR; assay type: cell-based; conditions: HEK293T, GIPR-GFP + NLuc-mini-G, +iAUC 60 min

Chain of Human GLP-1R-GFP (human) (P43220 24-463): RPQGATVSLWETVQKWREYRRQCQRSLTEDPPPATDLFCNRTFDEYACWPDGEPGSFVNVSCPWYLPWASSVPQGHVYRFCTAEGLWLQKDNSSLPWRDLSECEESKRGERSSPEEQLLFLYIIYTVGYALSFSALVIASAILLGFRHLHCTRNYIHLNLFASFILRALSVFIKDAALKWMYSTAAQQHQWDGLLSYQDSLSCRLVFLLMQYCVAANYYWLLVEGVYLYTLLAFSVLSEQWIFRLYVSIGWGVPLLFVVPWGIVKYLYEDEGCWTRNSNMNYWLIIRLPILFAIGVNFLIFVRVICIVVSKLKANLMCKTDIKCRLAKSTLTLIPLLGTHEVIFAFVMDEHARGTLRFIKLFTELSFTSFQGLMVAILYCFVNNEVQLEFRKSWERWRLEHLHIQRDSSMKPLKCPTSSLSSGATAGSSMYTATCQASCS
T2 sequence (P43220 24-463): as above

Compound: CCCCCCCCCCCCCCCC(=O)NCCCC[C@H](NC(=O)[C@H](CO)NC(=O)[C@@H]1CCCN1C(=O)[C@@H]1CCCN1C(=O)[C@@H]1CCCN1C(=O)[C@H](C)NC(=O)CNC(=O)[C@H](CO)NC(=O)[C@H](CO)NC(=O)[C@@H]1CCCN1C(=O)CNC(=O)CNC(=O)[C@H](C)NC(=O)[C@H](CC(C)C)NC(=O)[C@H](CC(C)C)NC(=O)[C@H](Cc1c[nH]c2ccccc12)NC(=O)[C@H](CC(N)=O)NC(=O)[C@@H](NC(=O)[C@H](Cc1ccccc1)NC(=O)[C@H](CCC(=O)O)NC(=O)C(C)(C)NC(=O)[C@H](C)NC(=O)[C@H](C)NC(=O)[C@H](CCC(N)=O)NC(=O)[C@H](CCCCN)NC(=O)[C@H](CC(=O)O)NC(=O)[C@H](CC(C)C)NC(=O)[C@H](Cc1ccc(O)cc1)NC(=O)[C@@H](NC(=O)[C@H](CO)NC(=O)[C@H](Cc1ccc(O)cc1)NC(=O)[C@H](CC(=O)O)NC(=O)[C@H](CO)NC(=O)[C@@H](NC(=O)[C@H](Cc1ccccc1)NC(=O)[C@@H](NC(=O)CNC(=O)[C@H](CCC(=O)O)NC(=O)C(C)(C)NC(=O)[C@@H](N)Cc1ccc(O)cc1)[C@@H](C)O)[C@@H](C)CC)[C@@H](C)CC)C(C)C)C(N)=O [fatty acyl-GIP]
- EC50 (human GIPR [1]; read-out: β-arr2 Recruitment EC50): > 1000 nM
- EC50 (human GIPR [2]; read-out: β-arr1 Recruitment EC50; HEK293T, GIPR-GFP + β-arrestin1-RLUC8, BRET, +iAUC 30 min): > 1000 nM
- EC50 (human GIPR [3]): 1.34 nM
- Emax (human GIPR [3]; HEK-293T, HEK293T transiently expressing untagged GIPR, CAMYEL sensor, no IBMX, +iAUC of 25 min response, 3-parameter fit, mean ± SEM, at least 3 experiments, SEM, read-out: cAMP Emax (% GIP)): 97 ± 2%
- EC50 (human GLP-1R [4]): 181 nM

Compound: Tirzepatide (peptide)
- GLP-1R co-localization with Rab5 early endosomes (BRET of hGLP-1R-Rluc8 with Venus-Rab5, HEK293T), 1 μM, % of GLP-1 (7–36 amide) (Human GLP-1R-GFP (human) [5]): 13%
- GLP-1R co-localization with Rab7 late endosomes (BRET of hGLP-1R-Rluc8 with Venus-Rab7, HEK293T), % of GLP-1 (7–36 amide) (Human GLP-1R-GFP (human) [5]): 24%
- GLP-1R co-localization with Rab11 recycling endosomes (BRET of hGLP-1R-Rluc8 with Venus-Rab11, HEK293T), decrease against GLP-1 (7–36 amide) (Human GLP-1R-GFP (human) [5]): 54%
- GLP-1R internalization Emax, % of GLP-1 (7–36 amide) (loss of BRET between hGLP-1R-Rluc8 and Venus-KRAS, HEK293T) (Human GLP-1R-GFP (human) [6]): 13%

Compound: CC[C@H](C)[C@H](NC(=O)[C@H](CC(C)C)NC(=O)[C@H](Cc1c[nH]c2ccccc12)NC(=O)[C@H](CCC(N)=O)NC(=O)[C@@H](NC(=O)[C@H](Cc1ccccc1)NC(=O)[C@H](C)NC(=O)[C@H](CCCCNC(=O)COCCOCCNC(=O)COCCOCCNC(=O)CC[C@H](NC(=O)CCCCCCCCCCCCCCCCCCC(=O)O)C(=O)O)NC(=O)[C@H](CCC(N)=O)NC(=O)[C@H](C)NC(=O)[C@@H](NC(=O)[C@H](CCCCN)NC(=O)[C@H](CC(=O)O)NC(=O)[C@H](CC(C)C)NC(=O)C(C)(C)NC(=O)[C@@H](NC(=O)[C@H](CO)NC(=O)[C@H](Cc1ccc(O)cc1)NC(=O)[C@H](CC(=O)O)NC(=O)[C@H](CO)NC(=O)[C@@H](NC(=O)[C@H](Cc1ccccc1)NC(=O)[C@@H](NC(=O)CNC(=O)[C@H](CCC(=O)O)NC(=O)C(C)(C)NC(=O)[C@@H](N)Cc1ccc(O)cc1)[C@@H](C)O)[C@@H](C)O)[C@@H](C)CC)[C@@H](C)CC)C(C)C)C(=O)N[C@@H](C)C(=O)NCC(=O)NCC(=O)N1CCC[C@H]1C(=O)N[C@@H](CO)C(=O)N[C@@H](CO)C(=O)NCC(=O)N[C@@H](C)C(=O)N1CCC[C@H]1C(=O)N1CCC[C@H]1C(=O)N1CCC[C@H]1C(=O)N[C@@H](CO)C(N)=O [tirzepatide, reference compound]
- Emax (human GLP-1R [7]): 31%
- EC50 (human GIPR [8]; read-out: Receptor Internalization pEC50 (converted)): 4.68 nM
- Emax (human GIPR [8]; HEK-293T, at least 3 experiments, read-out: Receptor Internalization Emax (% GIP)): 18 ± 1%
- Emax (human GLP-1R [9]): 17%
- EC50 (human GIPR [10]; read-out: Gαs Recruitment EC50): 324 nM
- Emax (human GIPR [10]; HEK-293T, mean ± SEM, at least 3 experiments, SEM, read-out: Gαs Recruitment Emax (% GIP)): 43 ± 3%
- total GLP-1R Rab5 co-localization, of that elicited by GLP-1 (7–36 amide) (human GLP-1R [11]; 1 μM stimulation, hGLP-1R-Rluc8 + Venus-Rab5 (early endosomes), +iAUC): 13%
- co-localization of GLP-1R with Rab7 positive (late) endosomes, of the response of GLP-1 (7–36 amide) (human GLP-1R [11]; hGLP-1R-Rluc8 + Venus-Rab7, +iAUC): 24%
- GLP-1R co-localization with Rab11-positive recycling endosomes, decrease vs GLP-1 (7–36 amide) (human GLP-1R [11]; hGLP-1R-Rluc8 + Venus-Rab11, +iAUC): 54%
- EC50 (human GIPR [1]; mean ± SEM, SEM, read-out: β-arr2 Recruitment pEC50 (converted)): 39.8 nM
- EC50 (human GIPR [2]; HEK293T, GIPR-GFP + β-arrestin1-RLUC8, BRET, +iAUC 30 min; read-out: β-arr1 Recruitment EC50): > 1000 nM
- EC50 (human GIPR [2]; HEK293T, GIPR-GFP + β-arrestin1-RLUC8, BRET, +iAUC 30 min; read-out: β-arr1 Recruitment pEC50 (converted)): > 1000 nM
- EC50 (human GIPR [3]; HEK293T, GIPR, CAMYEL sensor, no IBMX, +iAUC 25 min, read-out: cAMP EC50): 13.3 nM
- Emax (human GLP-1R [4]; HEK-293T, HEK293T transiently expressing untagged GLP-1R, CAMYEL sensor, no IBMX, +iAUC of 25 min response, 3-parameter fit, mean ± SEM, at least 3 experiments, SEM): 102 ± 4%
- Emax (human GLP-1R [12]): 24 ± 4%
- EC50 (human GIPR [13]; mean ± SEM, SEM, read-out: Gαq Recruitment pEC50 (converted)): 132 nM
- Gαq Recruitment Emax (% GIP) (human GIPR [13]; mean ± SEM, at least 3 experiments, listed as Dual Agonist (Tirzepatide), SEM): 71 ± 1 [-29]*^# % GIP
- EC50 (human GIPR [13]; read-out: Gαq Recruitment EC50): 164 nM
- Emax (human GIPR [13]; HEK-293T, mean ± SEM, at least 3 experiments, read-out: Gαq Recruitment Emax (% GIP)): 85%
